Laboratory results from patent publication US9113629B2, “4-amino-6-(4-substituted-phenyl)-picolinates and 6-amino-2-(4-substituted-phenyl)-pyrimidine-4-carboxylates and their use as herbicides” (DOW AGROSCIENCES LLC, priority 2013, dated 2015).
Read-outs that look alike come from different tables or passages of the source.

How the values were obtained:
[1] = system: Key Grass and Sedge Weeds as well as Grass Crops; experiment: Post-emergent Test II herbicidal activity (Table 6); format: in vivo; conditions: for pest or weed control at 70 g/ha / pest or weed control at 140 g/ha: post-emergence, 336 h; for pest or weed control at 70 g/ha: 70 g ai/ha; for pest or weed control at 140 g/ha: 140 g ai/ha; for Visual Growth Reduction (%) 14 Days After Application, SORVU: SORVU: sorghum (Sorghum vulgare); for Visual Growth Reduction (%) 14 Days After Application, TRZSS: TRZSS (wheat)
Procedure, shortened: (§1)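 Test species were raised 7–21 d under greenhouse conditions until reaching the first or second true leaf, sprayed with formulated compound at 187 L/ha, and kept subirrigated to avoid wash-off. Fourteen days later, damage was rated visually on a 0–100% scale against untreated plants.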

[2] = system: Key Broadleaf Weed and Crop Species; experiment: Post-emergent Test II herbicidal activity (Table 5); format: in vivo; conditions: for pest or weed control at 70 g/ha / pest or weed control at 140 g/ha: post-emergence, 336 h, 14 days after application; for pest or weed control at 70 g/ha: application rate 70 g ai/ha; for pest or weed control at 140 g/ha: application rate 140 g ai/ha; for Visual Growth Reduction (%) 14 Days After Application, ABUTH / Visual Growth Reduction (%) 14 Days After Application, AMARE / Visual Growth Reduction (%) 14 Days After Application, BRSNN / Visual Growth Reduction (%) 14 Days After Application, CHEAL / Visual Growth Reduction (%) 14 Days After Application, EPHHL / Visual Growth Reduction (%) 14 Days After Application, HELAN / Visual Growth Reduction (%) 14 Days After Application, VIOTR: post-emergent
Procedure, shortened: as §1

[3] = CYPES: yellow nutsedge (Cyperus esculentus), read-out: Visual Growth Reduction (%) 14 Days After Application, CYPES
[4] = DIGSA: crabgrass (Digitaria sanguinalis), read-out: Visual Growth Reduction (%) 14 Days After Application, DIGSA
[5] = ECHCG: barnyardgrass (Echinochloa crus-galli), read-out: Visual Growth Reduction (%) 14 Days After Application, ECHCG
[6] = ORYSA: rice (Oryza sativa), crop, read-out: Visual Growth Reduction (%) 14 Days After Application, ORYSA
[7] = SETFA: giant foxtail (Setaria faberi), read-out: Visual Growth Reduction (%) 14 Days After Application, SETFA
[8] = SORVU: grain sorghum (Sorghum vulgare), read-out: Visual Growth Reduction (%) 14 Days After Application, SORVU
[9] = TRZSS (wheat, Triticum aestivum), crop, read-out: Visual Growth Reduction (%) 14 Days After Application, TRZSS
[10] = ZEAMX: maize, corn (Zea mays), crop, read-out: Visual Growth Reduction (%) 14 Days After Application, ZEAMX
[11] = ABUTH: velvetleaf (Abutilon theophrasti), read-out: Visual Growth Reduction (%) 14 Days After Application, ABUTH
[12] = AMARE: redroot pigweed (Amaranthus retroflexus), read-out: Visual Growth Reduction (%) 14 Days After Application, AMARE
[13] = BRSNN: oilseed-rape, canola (Brassica napus), read-out: Visual Growth Reduction (%) 14 Days After Application, BRSNN
[14] = CHEAL: lambsquarters (Chenopodium album), read-out: Visual Growth Reduction (%) 14 Days After Application, CHEAL
[15] = EPHHL: wild poinsettia (Euphorbia heterophylla), read-out: Visual Growth Reduction (%) 14 Days After Application, EPHHL
[16] = HELAN: sunflower (Helianthus annuus), read-out: Visual Growth Reduction (%) 14 Days After Application, HELAN
[17] = VIOTR: wild pansy (Viola tricolor), read-out: Visual Growth Reduction (%) 14 Days After Application, VIOTR

Compound: C=Cc1c(C(=O)O)nc(-c2ccc(Cl)c(F)c2)c(F)c1N [Compound 214]
- pest or weed control at 70 g/ha [1, 3]: 95 to 100%
- pest or weed control at 140 g/ha [1, 3]: 95 to 100%
- pest or weed control at 70 g/ha [1, 4]: 0 to 29%
- pest or weed control at 140 g/ha [1, 4]: 0 to 29%
- pest or weed control at 70 g/ha [1, 5]: 95 to 100%
- pest or weed control at 140 g/ha [1, 5]: 95 to 100%
- pest or weed control at 70 g/ha [1, 6]: 0 to 29%
- pest or weed control at 140 g/ha [1, 6]: 45 to 59%
- pest or weed control at 70 g/ha [1, 7]: 0 to 29%
- pest or weed control at 140 g/ha [1, 7]: 30 to 44%
- pest or weed control at 70 g/ha [1, 8]: 75 to 84%
- pest or weed control at 140 g/ha [1, 8]: 85 to 94%
- pest or weed control at 70 g/ha [1, 9]: 0 to 29%
- pest or weed control at 140 g/ha [1, 9]: 0 to 29%
- pest or weed control at 70 g/ha [1, 10]: 85 to 94%
- pest or weed control at 140 g/ha [1, 10]: 85 to 94%
- pest or weed control at 70 g/ha [2, 11]: 95 to 100%
- pest or weed control at 140 g/ha [2, 11]: 95 to 100%
- pest or weed control at 70 g/ha [2, 12]: 95 to 100%
- pest or weed control at 140 g/ha [2, 12]: 95 to 100%
- pest or weed control at 70 g/ha [2, 13]: 95 to 100%
- pest or weed control at 140 g/ha [2, 13]: 95 to 100%
- pest or weed control at 70 g/ha [2, 14]: 95 to 100%
- pest or weed control at 140 g/ha [2, 14]: 95 to 100%
- pest or weed control at 70 g/ha [2, 15]: 95 to 100%
- pest or weed control at 140 g/ha [2, 15]: 95 to 100%
- pest or weed control at 70 g/ha [2, 16]: 95 to 100%
- pest or weed control at 140 g/ha [2, 16]: 95 to 100%
- pest or weed control at 70 g/ha [2, 17]: 75 to 84%
- pest or weed control at 140 g/ha [2, 17]: 75 to 84%

Compound: COC(=O)c1nc(-c2ccc(Br)c(F)c2F)c(F)c(N)c1Cl [Compound 109, methyl 4-amino-6-(4-bromo-2,3-difluorophenyl)-3-chloro-5-fluoropicolinate]
- pest or weed control at 70 g/ha [1, 3]: 95 to 100%
- pest or weed control at 140 g/ha [1, 3]: 95 to 100%
- pest or weed control at 70 g/ha [1, 4]: 85 to 94%
- pest or weed control at 140 g/ha [1, 4]: 95 to 100%
- pest or weed control at 70 g/ha [1, 5]: 95 to 100%
- pest or weed control at 140 g/ha [1, 5]: 95 to 100%
- pest or weed control at 70 g/ha [1, 6]: 45 to 59%
- pest or weed control at 140 g/ha [1, 6]: 45 to 59%
- pest or weed control at 70 g/ha [1, 7]: 95 to 100%
- pest or weed control at 140 g/ha [1, 7]: 95 to 100%
- pest or weed control at 70 g/ha [1, 8]: 85 to 94%
- pest or weed control at 140 g/ha [1, 8]: 95 to 100%
- pest or weed control at 70 g/ha [1, 9]: 45 to 59%
- pest or weed control at 140 g/ha [1, 9]: 60 to 74%
- pest or weed control at 70 g/ha [1, 10]: 85 to 94%
- pest or weed control at 140 g/ha [1, 10]: 85 to 94%
- pest or weed control at 70 g/ha [2, 11]: 95 to 100%
- pest or weed control at 140 g/ha [2, 11]: 95 to 100%
- pest or weed control at 70 g/ha [2, 12]: 95 to 100%
- pest or weed control at 140 g/ha [2, 12]: 95 to 100%
- pest or weed control at 70 g/ha [2, 13]: 95 to 100%
- pest or weed control at 140 g/ha [2, 13]: 95 to 100%
- pest or weed control at 70 g/ha [2, 14]: 95 to 100%
- pest or weed control at 140 g/ha [2, 14]: 95 to 100%
- pest or weed control at 70 g/ha [2, 15]: 95 to 100%
- pest or weed control at 140 g/ha [2, 15]: 95 to 100%
- pest or weed control at 70 g/ha [2, 16]: 0 to 29%
- pest or weed control at 140 g/ha [2, 16]: 95 to 100%
- pest or weed control at 70 g/ha [2, 17]: 95 to 100%
- pest or weed control at 140 g/ha [2, 17]: 95 to 100%

Compound: COC(=O)c1nc(-c2ccc(C(F)(F)F)c(F)c2)c(Cl)c(N)c1Cl [Compound 58]
- Visual Growth Reduction (%) 14 Days After Application, CYPES ([1]; CYPES: yellow nutsedge (Cyperus esculentus), application rate 70 g ai/ha): A (95-100)
- Visual Growth Reduction (%) 14 Days After Application, CYPES ([1]; CYPES: yellow nutsedge (Cyperus esculentus), application rate 140 g ai/ha): A (95-100)
- Visual Growth Reduction (%) 14 Days After Application, DIGSA ([1]; DIGSA: crabgrass (Digitaria sanguinalis), application rate 70 g ai/ha): D (60-74)
- Visual Growth Reduction (%) 14 Days After Application, DIGSA ([1]; DIGSA: crabgrass (Digitaria sanguinalis), application rate 140 g ai/ha): C (75-84)
- Visual Growth Reduction (%) 14 Days After Application, ECHCG ([1]; ECHCG: barnyardgrass (Echinochloa crus-galli), application rate 70 g ai/ha): G (0-29)
- Visual Growth Reduction (%) 14 Days After Application, ECHCG ([1]; ECHCG: barnyardgrass (Echinochloa crus-galli), application rate 140 g ai/ha): C (75-84)
- Visual Growth Reduction (%) 14 Days After Application, ORYSA ([1]; ORYSA: rice (Oryza sativa), application rate 70 g ai/ha): G (0-29)
- Visual Growth Reduction (%) 14 Days After Application, ORYSA ([1]; ORYSA: rice (Oryza sativa), application rate 140 g ai/ha): G (0-29)
- Visual Growth Reduction (%) 14 Days After Application, SORVU ([1]; application rate 70 g ai/ha): E (45-59)
- Visual Growth Reduction (%) 14 Days After Application, SORVU ([1]; application rate 140 g ai/ha): E (45-59)
- Visual Growth Reduction (%) 14 Days After Application, TRZSS ([1]; application rate 70 g ai/ha): E (45-59)
- Visual Growth Reduction (%) 14 Days After Application, TRZSS ([1]; application rate 140 g ai/ha): D (60-74)
- Visual Growth Reduction (%) 14 Days After Application, ZEAMX ([1]; ZEAMX: maize, corn (Zea mays), application rate 70 g ai/ha): D (60-74)
- Visual Growth Reduction (%) 14 Days After Application, ZEAMX ([1]; ZEAMX: maize, corn (Zea mays), application rate 140 g ai/ha): D (60-74)
- Visual Growth Reduction (%) 14 Days After Application, ABUTH ([2]; ABUTH: velvetleaf (Abutilon theophrasti), 70 g ai/ha): B (85-94)
- Visual Growth Reduction (%) 14 Days After Application, ABUTH ([2]; ABUTH: velvetleaf (Abutilon theophrasti), 140 g ai/ha): A (95-100)
- Visual Growth Reduction (%) 14 Days After Application, AMARE ([2]; AMARE: redroot pigweed (Amaranthus retroflexus), 70 g ai/ha): B (85-94)
- Visual Growth Reduction (%) 14 Days After Application, AMARE ([2]; AMARE: redroot pigweed (Amaranthus retroflexus), 140 g ai/ha): A (95-100)
- Visual Growth Reduction (%) 14 Days After Application, BRSNN ([2]; BRSNN: oilseed-rape, canola (Brassica napus), 70 g ai/ha): D (60-74)
- Visual Growth Reduction (%) 14 Days After Application, BRSNN ([2]; BRSNN: oilseed-rape, canola (Brassica napus), 140 g ai/ha): C (75-84)
- Visual Growth Reduction (%) 14 Days After Application, CHEAL ([2]; CHEAL: lambsquarters (Chenopodium album), 70 g ai/ha): A (95-100)
- Visual Growth Reduction (%) 14 Days After Application, CHEAL ([2]; CHEAL: lambsquarters (Chenopodium album), 140 g ai/ha): A (95-100)
- Visual Growth Reduction (%) 14 Days After Application, EPHHL ([2]; EPHHL: wild poinsettia (Euphorbia heterophylla), 70 g ai/ha): G (0-29)
- Visual Growth Reduction (%) 14 Days After Application, EPHHL ([2]; EPHHL: wild poinsettia (Euphorbia heterophylla), 140 g ai/ha): G (0-29)
- Visual Growth Reduction (%) 14 Days After Application, HELAN ([2]; HELAN: sunflower (Helianthus annuus), 70 g ai/ha): A (95-100)
- Visual Growth Reduction (%) 14 Days After Application, HELAN ([2]; HELAN: sunflower (Helianthus annuus), 140 g ai/ha): A (95-100)
- Visual Growth Reduction (%) 14 Days After Application, VIOTR ([2]; VIOTR: wild pansy (Viola tricolor), 70 g ai/ha): G (0-29)
- Visual Growth Reduction (%) 14 Days After Application, VIOTR ([2]; VIOTR: wild pansy (Viola tricolor), 140 g ai/ha): G (0-29)
